15 molecules from patent US5574043A, “Certain [1,2,5-thiadiazol-4-yl]-1-azabicyclo [3.2.1]octane derivatives and their pharmaceutical uses” (Novo Nordisk A/S, priority 1995, dated 1996) can be followed below.

The target in this assay is muscarinic acetylcholine receptors. The assay can be described thus: Inhibition of specific binding of 3H-Oxotremorine-M (OXO BINDING) in vitro, rat cortex. Set-up: species or system male Wistar rats. The following applies: rat cortex homogenate, 3H-Oxotremorine 1.0 nM, 30 min at 25° C., pH 7.4. An excerpt: The pharmacological properties of the compounds of the invention can be illustrated by determining their capability to inhibit the specific binding of ^3 H-Oxotremorine-M (^3 H-Oxo). Birdsdall N. J. M., Hulme E. C., and Burgen A. S. V. (1980). "The Character of Muscarinic Receptors in Different Regions of the Rat Brain". Proc. Roy. Soc. London (Series B) 207,1.
^3 H-Oxo labels muscarinic receptor in the CNS (with a preference for agonist domains of the receptors). Three different sites are labelled by ^3 H-Oxo. […] Using the present experimental conditions only the high and medium affinity sites are determined.
The inhibitory effects of compounds on ^3 H-Oxo binding reflects the affinity for muscarinic acetylcholine receptors.
All preparations are performed at 0°-4° C. unless otherwise indicated. Fresh cortex (0.1-1 g) from male Wistar rats (150-250 g) is homogenized for 5-10 s in 10 ml 20 mM Hepes pH: 7.4, with an Ultra-Turrax homogenizer. The homogenizer, is rinsed with 10 ml of buffer and the combined suspension centrifuged for 15 min at 40,000×g. The pellet is washed three times with buffer. In each step the pellet is homogenized as before in 2×10 ml of buffer and centrifuged for 10 min at 40,000×g.
The final pellet is homogenized in 20 mM Hepes pH: 7.4 (100 ml per g of original tissue) and used for binding assay. Aliquots of 0.5 ml is added 25 μl of test solution and 25 μl of ^3 H-Oxotremorine (1.0 nM, final concentration) mixed and incubated for 30 min at 25° C. Non-specific binding is determined in triplicate using arecoline (1 μg/ml, final concentration) as the test substance. After incubation samples are added 5 ml of ice-cold buffer and poured directly onto Whatman GF/C glass fibre filters under suction and immediately washed 2 times with 5 ml of ice-cold buffer. The amount of radioactivity on the filters are determined by conventional liquid scintillation counting. Specific binding is total binding minus non specific binding.
Test substances are dissolved in 10 ml water (if necessary heated on a steam bath for less than 5 minutes) at a concentration of 2.2 mg/ml.
The test value will be given as IC50 (the concentration (ng/ml) of the test substance which inhibits the specific binding of ^3 H-Oxo by 50%).
IC50 =(applied test substance concentration) [formula] where Co is specific binding in control assays and Cx is the specific binding in the test assay. (The calculations assume normal mass-action kinetics).

Structures can show the parent of a compound that is named as a salt.

Turning to `COc1nsnc1C1=CN2CCC1CC2.O=C(O)C(=O)O` [Compound 4, 3-(3-Methoxy-1,2,5-thiadiazol-4-yl)-1-azabicyclo[2.2.2]oct-2-ene oxalate], the “Inhibition in vitro OXO BINDING IC50” value stood at 21 ng/mL.

On to `CCCCCSc1nsnc1[C@H]1CN2CCC[C@H]1C2` (relative stereo) [Compound 31, Exo-6-(3-pentylthio-1,2,5-thiadiazol-4-yl)-1-azabicyclo[3.2.1]octane oxalate], for which the “Inhibition in vitro OXO BINDING IC50” value stood at 0.6 ng/mL.

Take `N#CCSc1nsnc1[C@H]1CN2CCC[C@@H]1C2` (relative stereo) [Compound 89, Endo-6-(3-cyanomethylthio-1,2,5-thiadiazol-4-yl)-1-azabicyclo[3.2.1]octane oxalate]: the “Inhibition in vitro OXO BINDING IC50” value came out at 12 ng/mL.

Turning to `CCCCCCSc1nsnc1[C@@H]1CN2CC[C@H]1C2` (relative stereo) [Compound 34, Endo-3-(3-hexylthio-1,2,5-thiadiazol-4-yl)-1-azabicyclo[2.2.1]heptane fumarate], the “Inhibition in vitro OXO BINDING IC50” value is 7.9 ng/mL.

For `CCCCCCOc1nsnc1[C@@H]1CN2CCC[C@@H]1C2` (relative stereo) [Compound 122, Exo-6-(3-hexyloxy-1,2,5-thiadiazol-4-yl)-1-azabicyclo[3.2.1]octane oxalate], the “Inhibition in vitro OXO BINDING IC50” value was 0.67 ng/mL.

In the case of `Cn1nnnc1SCCCCSc1nsnc1C1CN2CCC1CC2` (stereo not drawn) [Compound 106, oxalate], the “Inhibition in vitro OXO BINDING IC50” value is 0.9 ng/mL.

Consider `N#CCCCCSc1nsnc1[C@H]1CN2CCC[C@H]1C2` (relative stereo) [Compound 78, Exo-6-(3-(4-cyanobutylthio)-1,2,5-thiadiazol-4-yl)-1-azabicyclo[3.2.1]octane oxalate], for which the “Inhibition in vitro OXO BINDING IC50” value was determined as 0.30 ng/mL.

In the case of `CCCCCCOc1nsnc1C1(OCCCCCC)CN2CCC1CC2.O=C(O)C(=O)O` (stereo not drawn) [Compound 6, 3-Hexyloxy-3-(3-hexyloxy-1,2,5-thiadiazol-4-yl)-1-azabicyclo[2.2.2]octane oxalate], the “Inhibition in vitro OXO BINDING IC50” value is greater than 300 ng/mL.

Regarding `CCCCCCCSc1nsnc1C1CN2CCC1CC2.O=C(O)/C=C/C(=O)O` (stereo not drawn) [Compound 54, 3-(3-Heptylthio-1,2,5-thiadiazol-4-yl)-1-azabicyclo[2.2.2]octane fumarate], the “Inhibition in vitro OXO BINDING IC50” value turned out to be 3.1 ng/mL.

For the molecule `CCCCSc1nsnc1[C@H]1CN2CCC[C@@H]1C2` (relative stereo) [Compound 24, Endo-6-(3-butylthio-1,2,5-thiadiazol-4-yl)-1-azabicyclo[3.2.1]octane oxalate], the “Inhibition in vitro OXO BINDING IC50” value came to 0.52 ng/mL.

For `CCCOc1nsnc1[C@@H]1CN2CCC[C@@H]1C2` (relative stereo) [Compound 119, Exo-6-(3-propoxy-1,2,5-thiadiazol-4-yl)-1-azabicyclo[3.2.1]octane oxalate], the “Inhibition in vitro OXO BINDING IC50” value stood at 0.30 ng/mL.

`CCCCCOc1nsnc1[C@@H]1CN2CCC[C@@H]1C2` (relative stereo) [Compound 121, Exo-6-(3-pentyloxy-1,2,5-thiadiazol-4-yl)-1-azabicyclo[3.2.1]octane oxalate]: the “Inhibition in vitro OXO BINDING IC50” value amounted to 0.32 ng/mL.

For `N#CCSc1nsnc1C1CN2CCC1CC2.O=C(O)C(=O)O` (stereo not drawn) [Compound 103, 3-(3-Cyanomethylthio-1,2,5-thiadiazol-4-yl)-1-azabicyclo[2.2.2]octane oxalate], the “Inhibition in vitro OXO BINDING IC50” value was 0.92 ng/mL.

For the molecule `CC(C)CCSc1nsnc1[C@H]1CN2CCC[C@H]1C2` (relative stereo) [Compound 77, Exo-6-(3-isopentylthio-1,2,5-thiadiazol-4-yl)-1-azabicyclo[3.2.1]octane], the “Inhibition in vitro OXO BINDING IC50” value came out at 0.89 ng/mL.

With `CCCCCCCSc1nsnc1[C@H]1CN2CCC[C@H]1C2` (relative stereo) [Compound 75, Exo-6-(3-heptylthio-1,2,5-thiadiazol-4-yl)-1-azabicyclo[3.2.1]octane oxalate], the “Inhibition in vitro OXO BINDING IC50” value stood at 0.96 ng/mL.
